The values below come from PMC5218480 (PLoS ONE, 2017).

This experiment deals with MV-4-11 cells. The experiment is described as follows: Gene expression microarray analysis (Affymetrix PrimeView) and GSEA. Format: cell-based, human. More on the design: RFU PODN (11730768_x_at) / Fold change /veh PODN (11730768_x_at) / RFU LINC00158 (11744669_a_at) / Fold change /veh LINC00158 (11744669_a_at) / RFU DUSP10 (11751237_a_at) / Fold change /veh DUSP10 (11751237_a_at) / RFU ID3 (11757404_x_at) / Fold change /veh ID3 (11757404_x_at) / RFU PLEKHG5 (11737974_s_at) / Fold change /veh PLEKHG5 (11737974_s_at) / RFU LRRC4B (11730491_at) / Fold change /veh LRRC4B (11730491_at) / RFU GIMAP4 (11747438_a_at) / Fold change /veh GIMAP4 (11747438_a_at) / RFU KRT8 (11758183_x_at) / Fold change /veh KRT8 (11758183_x_at) / RFU CNN1 (11734310_a_at) / Fold change /veh CNN1 (11734310_a_at) / RFU VPS37D (11726825_at) / Fold change /veh VPS37D (11726825_at) / RFU C10orf10 (11716522_x_at) / Fold change /veh C10orf10 (11716522_x_at) / RFU KIR2DL2 /// KIR2DL4 /// KIR2DL5A /// KIR2DL5B /// KIR2DS1 /// KIR2DS2 /// KIR2DS3 /// KIR2DS4 /// KIR3DL3 /// KIR3DL3 /// KIR3DS1 (11738374_at) / Fold change /veh KIR2DL2 /// KIR2DL4 /// KIR2DL5A /// KIR2DL5B /// KIR2DS1 /// KIR2DS2 /// KIR2DS3 /// KIR2DS4 /// KIR3DL3 /// KIR3DL3 /// KIR3DS1 (11738374_at) / RFU C1QL1 (11718748_at) / Fold change /veh C1QL1 (11718748_at) / RFU TMPRSS4 (11747572_a_at) / Fold change /veh TMPRSS4 (11747572_a_at) / RFU HAMP (11756126_x_at) / Fold change /veh HAMP (11756126_x_at) / RFU RNFT2 (11725882_a_at) / Fold change /veh RNFT2 (11725882_a_at) / RFU NR4A2 (11747474_a_at) / Fold change /veh NR4A2 (11747474_a_at) / RFU ABCC12 (11746883_a_at) / Fold change /veh ABCC12 (11746883_a_at) / RFU TMEM136 (11760407_x_at) / Fold change /veh TMEM136 (11760407_x_at) / RFU CLDN22 /// WWC2 (11732394_at) / Fold change /veh CLDN22 /// WWC2 (11732394_at) / RFU HLA-DPB1 (11760878_x_at) / Fold change /veh HLA-DPB1 (11760878_x_at) / RFU SPINT1 (11716480_a_at) / Fold change /veh SPINT1 (11716480_a_at) / RFU GAP43 (11754022_s_at) / Fold change /veh GAP43 (11754022_s_at) / RFU A4GNT (11735810_at) / Fold change /veh A4GNT (11735810_at) / RFU PRB3 (11715151_x_at) / Fold change /veh PRB3 (11715151_x_at) / RFU TUBB4B (11761932_at) / Fold change /veh TUBB4B (11761932_at) / RFU CAPN14 (11732068_a_at) / Fold change /veh CAPN14 (11732068_a_at) / RFU TMCC2 (11721928_a_at) / Fold change /veh TMCC2 (11721928_a_at) / RFU IRGQ (11745062_a_at) / Fold change /veh IRGQ (11745062_a_at) / RFU FAM174B (11720279_a_at) / Fold change /veh FAM174B (11720279_a_at) / RFU TMPRSS4 (11748680_a_at) / Fold change /veh TMPRSS4 (11748680_a_at) / RFU FAM212B (11763350_a_at) / Fold change /veh FAM212B (11763350_a_at) / RFU PLEKHG5 (11743358_a_at) / Fold change /veh PLEKHG5 (11743358_a_at) / RFU ZSCAN30 (11745921_a_at) / Fold change /veh ZSCAN30 (11745921_a_at) / RFU CMKLR1 (11741424_a_at) / Fold change /veh CMKLR1 (11741424_a_at) / RFU LOC101060620 /// MAPK8IP1 (11723275_at) / Fold change /veh LOC101060620 /// MAPK8IP1 (11723275_at) / RFU SPTSSB (11747773_x_at) / Fold change /veh SPTSSB (11747773_x_at) / RFU PRSS12 (11739890_at) / Fold change /veh PRSS12 (11739890_at) / RFU BIN1 (11741810_x_at) / Fold change /veh BIN1 (11741810_x_at) / RFU WNT11 (11732464_a_at) / Fold change /veh WNT11 (11732464_a_at) / RFU C10orf10 (11716521_a_at) / Fold change /veh C10orf10 (11716521_a_at) / RFU C5orf56 (11738089_at) / Fold change /veh C5orf56 (11738089_at) / RFU CYB561 (11721691_x_at) / Fold change /veh CYB561 (11721691_x_at) / RFU ANKRD19P (11752326_a_at) / Fold change /veh ANKRD19P (11752326_a_at) / RFU OR2T12 /// OR2T33 /// OR2T8 (11738714_s_at) / Fold change /veh OR2T12 /// OR2T33 /// OR2T8 (11738714_s_at) / RFU VCAN (11748164_a_at) / Fold change /veh VCAN (11748164_a_at) / RFU JSRP1 (11732532_at) / Fold change /veh JSRP1 (11732532_at) / RFU KRTAP10-11 (11738290_x_at) / Fold change /veh KRTAP10-11 (11738290_x_at) / RFU MYO3A (11730013_a_at) / Fold change /veh MYO3A (11730013_a_at) / RFU EBF3 (11725865_a_at) / Fold change /veh EBF3 (11725865_a_at) / RFU CAMK2N1 (11719241_x_at) / Fold change /veh CAMK2N1 (11719241_x_at) / RFU C5orf56 (11738088_a_at) / Fold change /veh C5orf56 (11738088_a_at) / RFU OLFML3 (11715873_a_at) / Fold change /veh OLFML3 (11715873_a_at) / RFU LOC100653217 /// NTM (11731650_a_at) / Fold change /veh LOC100653217 /// NTM (11731650_a_at) / RFU MAPK11 (11762145_a_at) / Fold change /veh MAPK11 (11762145_a_at) / RFU FIZ1 (11724087_x_at) / Fold change /veh FIZ1 (11724087_x_at) / RFU OASL (11726364_x_at) / Fold change /veh OASL (11726364_x_at) / RFU SOX15 (11748057_x_at) / Fold change /veh SOX15 (11748057_x_at) / RFU CD79A (11719716_a_at) / Fold change /veh CD79A (11719716_a_at) / RFU HIST1H1D (11736915_at) / Fold change /veh HIST1H1D (11736915_at) / RFU CASKIN2 (11723855_a_at) / Fold change /veh CASKIN2 (11723855_a_at) / RFU LOC730098 (11760151_x_at) / Fold change /veh LOC730098 (11760151_x_at) / RFU OR4N2 (11742367_at) / Fold change /veh OR4N2 (11742367_at) / RFU PRRT2 (11749266_a_at) / Fold change /veh PRRT2 (11749266_a_at) / RFU SNX32 (11753110_a_at) / Fold change /veh SNX32 (11753110_a_at) / RFU CDHR5 (11726645_a_at) / Fold change /veh CDHR5 (11726645_a_at) / RFU RCAN1 (11760418_a_at) / Fold change /veh RCAN1 (11760418_a_at) / RFU FAM167A (11723789_a_at) / Fold change /veh FAM167A (11723789_a_at) / RFU FAM26E (11764081_at) / Fold change /veh FAM26E (11764081_at) / RFU ISYNA1 (11749810_s_at) / Fold change /veh ISYNA1 (11749810_s_at) / RFU ACY1 (11761880_at) / Fold change /veh ACY1 (11761880_at) / RFU 11764098_at / Fold change /veh 11764098_at / RFU SAMD14 (11745864_x_at) / Fold change /veh SAMD14 (11745864_x_at) / RFU NPB (11741838_a_at) / Fold change /veh NPB (11741838_a_at) / RFU TMPRSS6 (11731388_a_at) / Fold change /veh TMPRSS6 (11731388_a_at) / RFU KRTAP10-2 (11738614_at) / Fold change /veh KRTAP10-2 (11738614_at) / RFU ARHGAP8 /// PRR5-ARHGAP8 (11727945_x_at) / Fold change /veh ARHGAP8 /// PRR5-ARHGAP8 (11727945_x_at) / RFU KRTAP5-7 /// NADSYN1 (11734609_at) / Fold change /veh KRTAP5-7 /// NADSYN1 (11734609_at) / RFU RASL12 (11751679_a_at) / Fold change /veh RASL12 (11751679_a_at) / RFU CDKN2B (11736163_a_at) / Fold change /veh CDKN2B (11736163_a_at) / RFU PRF1 (11729649_at) / Fold change /veh PRF1 (11729649_at) / RFU, ZNF638 /// ZNF638-IT1 / Fold change vs veh, ZNF638 /// ZNF638-IT1 / RFU, PANK3 / Fold change vs veh, PANK3 / RFU, SH3YL1 / Fold change vs veh, SH3YL1 / RFU, ZEB2 / Fold change vs veh, ZEB2 / RFU, NRIP1 / Fold change vs veh, NRIP1 / RFU, PTTG1IP / Fold change vs veh, PTTG1IP / RFU, CAPN2 / Fold change vs veh, CAPN2 / RFU, MED14 / Fold change vs veh, MED14 / RFU, SNORA58 / Fold change vs veh, SNORA58 / RFU, C1orf63 / Fold change vs veh, C1orf63 / RFU, LRRFIP1 / Fold change vs veh, LRRFIP1 / RFU, NDUFAF7 / Fold change vs veh, NDUFAF7 / RFU, SLC12A2 / Fold change vs veh, SLC12A2 / RFU, IBTK / Fold change vs veh, IBTK / RFU, ESF1 / Fold change vs veh, ESF1 / Fold change vs veh, TMEM50B / RFU, TAOK1 / Fold change vs veh, TAOK1 / RFU, ACBD3 / Fold change vs veh, ACBD3 / RFU, TMA16 / Fold change vs veh, TMA16 / RFU, RWDD3 / Fold change vs veh, RWDD3 / RFU, BCAT1 / Fold change vs veh, BCAT1 / RFU, EDEM3 / Fold change vs veh, EDEM3 / RFU, TMEM33 / Fold change vs veh, TMEM33 / RFU, WDR75 / Fold change vs veh, WDR75 / RFU, AHCTF1 / Fold change vs veh, AHCTF1 / RFU, TFRC / Fold change vs veh, TFRC / RFU, ZDHHC17 / Fold change vs veh, ZDHHC17 / RFU, NOM1 / Fold change vs veh, NOM1 / RFU, ARL8B / Fold change vs veh, ARL8B / RFU, ZBTB11 / Fold change vs veh, ZBTB11 / RFU, TAMM41 / Fold change vs veh, TAMM41 / RFU, KIAA1704 /// LOC100996395 / Fold change vs veh, KIAA1704 /// LOC100996395 / RFU, ING1 / Fold change vs veh, ING1 / RFU, TRMT61B / Fold change vs veh, TRMT61B / RFU, FUBP3 / Fold change vs veh, FUBP3 / RFU, TP53 / Fold change vs veh, TP53 / RFU, TNKS2 / Fold change vs veh, TNKS2 / RFU, ZFP14 / Fold change vs veh, ZFP14 / RFU, ACTR2 / Fold change vs veh, ACTR2 / RFU, PPP3R1 / Fold change vs veh, PPP3R1 / RFU, PIK3R1 / Fold change vs veh, PIK3R1 / RFU, HNRNPA1 / Fold change vs veh, HNRNPA1 / RFU, RNF170 / Fold change vs veh, RNF170 / RFU, ZNF28 / Fold change vs veh, ZNF28 / RFU, RNGTT / Fold change vs veh, RNGTT / RFU, OGT / Fold change vs veh, OGT / RFU, BRD1 / Fold change vs veh, BRD1 / RFU, MARS / Fold change vs veh, MARS / RFU, ZNF655 / Fold change vs veh, ZNF655 / RFU, FAHD1 / Fold change vs veh, FAHD1 / RFU, BDP1 / Fold change vs veh, BDP1 / RFU, LRRCC1 / Fold change vs veh, LRRCC1 / RFU, ARID1A / Fold change vs veh, ARID1A / RFU, ZNF146 / Fold change vs veh, ZNF146 / RFU, ZNF330 / Fold change vs veh, ZNF330 / RFU, GPN3 / Fold change vs veh, GPN3 / RFU, C9orf123 / Fold change vs veh, C9orf123 / RFU, N4BP2L2 / Fold change vs veh, N4BP2L2 / RFU, ARFIP1 / Fold change vs veh, ARFIP1 / RFU, FAM179B / Fold change vs veh, FAM179B / RFU, BCL10 / Fold change vs veh, BCL10 / RFU, UHRF1BP1L / Fold change vs veh, UHRF1BP1L / RFU, BET1 / Fold change vs veh, BET1 / RFU, CNOT2 / Fold change vs veh, CNOT2 / RFU, ZNF268 / Fold change vs veh, ZNF268 / Fold change vs veh, ZNF507 / RFU, DGCR2 / Fold change vs veh, DGCR2 / RFU, WDSUB1 / Fold change vs veh, WDSUB1 / Fold change vs veh, HSP90B1 /// MIR3652 / RFU, ADSS / Fold change vs veh, ADSS / RFU, GK / Fold change vs veh, GK / RFU, ZNF148 / Fold change vs veh, ZNF148 / RFU, TAF9 / Fold change vs veh, TAF9 / RFU, SLC1A5 / Fold change vs veh, SLC1A5 / RFU, SLMO2 / Fold change vs veh, SLMO2 / RFU, ABCC4 / Fold change vs veh, ABCC4 / RFU, LOC101060439 /// RAP1B / Fold change vs veh, LOC101060439 /// RAP1B / RFU, RFX7 / Fold change vs veh, RFX7 / RFU, GTPBP10 / Fold change vs veh, GTPBP10 / RFU, CNEP1R1 / Fold change vs veh, CNEP1R1 / RFU, BIVM-ERCC5 /// ERCC5 / Fold change vs veh, BIVM-ERCC5 /// ERCC5 / RFU, ILF3 / Fold change vs veh, ILF3 / RFU 11762660_at / Fold change /veh 11762660_at / RFU VCAN (11757783_s_at) / Fold change /veh VCAN (11757783_s_at) / RFU DDX43 (11728927_at) / Fold change /veh DDX43 (11728927_at) / RFU KRT8 (11758188_x_at) / Fold change /veh KRT8 (11758188_x_at) / RFU NKD1 (11759106_at) / Fold change /veh NKD1 (11759106_at) / RFU SRD5A1 (11742802_a_at) / Fold change /veh SRD5A1 (11742802_a_at) / RFU TPSAB1 /// TPSB2 (11721975_s_at) / Fold change /veh TPSAB1 /// TPSB2 (11721975_s_at) / RFU GSTM3 (11746129_a_at) / Fold change /veh GSTM3 (11746129_a_at) / RFU IL23R (11737362_x_at) / Fold change /veh IL23R (11737362_x_at) / RFU TMEM51 (11727254_a_at) / Fold change /veh TMEM51 (11727254_a_at) / RFU PIWIL2 (11732686_x_at) / Fold change /veh PIWIL2 (11732686_x_at) / RFU ORM1 (11744905_x_at) / Fold change /veh ORM1 (11744905_x_at) / RFU CCDC152 (11743942_at) / Fold change /veh CCDC152 (11743942_at) / RFU ECM1 (11717891_a_at) / Fold change /veh ECM1 (11717891_a_at) / RFU IL23R (11748794_a_at) / Fold change /veh IL23R (11748794_a_at) / RFU TNFAIP8L3 (11732012_x_at) / Fold change /veh TNFAIP8L3 (11732012_x_at) / RFU MBOAT4 (11741988_at) / Fold change /veh MBOAT4 (11741988_at) / RFU 11764193_at / Fold change /veh 11764193_at / RFU TMEM53 (11763286_at) / Fold change /veh TMEM53 (11763286_at) / RFU MAGEB2 (11727129_at) / Fold change /veh MAGEB2 (11727129_at) / RFU TMEM200A (11744735_a_at) / Fold change /veh TMEM200A (11744735_a_at) / RFU CCDC152 (11751479_a_at) / Fold change /veh CCDC152 (11751479_a_at) / RFU FAM211A (11726209_a_at) / Fold change /veh FAM211A (11726209_a_at) / RFU RGS16 (11746705_a_at) / Fold change /veh RGS16 (11746705_a_at) / RFU VCAN (11755009_s_at) / Fold change /veh VCAN (11755009_s_at) / RFU RHOB (11743442_s_at) / Fold change /veh RHOB (11743442_s_at) / RFU RGS16 (11720943_a_at) / Fold change /veh RGS16 (11720943_a_at) / RFU RGS16 (11720944_at) / Fold change /veh RGS16 (11720944_at) / RFU, VPS4B / Fold change vs veh, VPS4B / RFU, CREB1 / Fold change vs veh, CREB1 / RFU, DNAJC13 / Fold change vs veh, DNAJC13 / RFU, GNAQ / Fold change vs veh, GNAQ / RFU, CDK5R1 / Fold change vs veh, CDK5R1 / RFU, ZRANB3 / Fold change vs veh, ZRANB3 / RFU, CUL4A / Fold change vs veh, CUL4A / RFU, CCNY / Fold change vs veh, CCNY / RFU, UFL1 / Fold change vs veh, UFL1 / RFU, COG3 / Fold change vs veh, COG3 / RFU, DIAPH2 / Fold change vs veh, DIAPH2 / RFU, SKA2 / Fold change vs veh, SKA2 / RFU, AFF3 / Fold change vs veh, AFF3 / RFU, LMF1 / Fold change vs veh, LMF1 / RFU, IPO11 / Fold change vs veh, IPO11 / RFU, DFFB / Fold change vs veh, DFFB / RFU, FOXP1 / Fold change vs veh, FOXP1 / RFU, CARD8 / Fold change vs veh, CARD8 / RFU, STRN3 / Fold change vs veh, STRN3 / RFU, ADK / Fold change vs veh, ADK / RFU, RASSF2 / Fold change vs veh, RASSF2 / RFU, WIPF1 / Fold change vs veh, WIPF1 / RFU, LARP1B / Fold change vs veh, LARP1B / RFU, RASA1 / Fold change vs veh, RASA1 / RFU, RB1 / Fold change vs veh, RB1 / RFU, PPFIA1 / Fold change vs veh, PPFIA1 / RFU, MAT2A / Fold change vs veh, MAT2A / RFU, CCT5 / Fold change vs veh, CCT5 / RFU, WDR92 / Fold change vs veh, WDR92 / RFU, CUX1 / Fold change vs veh, CUX1 / RFU, TTC7A / Fold change vs veh, TTC7A / RFU, TMEM135 / Fold change vs veh, TMEM135 / RFU, DEPTOR / Fold change vs veh, DEPTOR / RFU, CPM / Fold change vs veh, CPM / RFU, DNAJB6 / Fold change vs veh, DNAJB6 / RFU, CACNA2D3 / Fold change vs veh, CACNA2D3 / RFU, DTX4 / Fold change vs veh, DTX4 / RFU, TFCP2 / Fold change vs veh, TFCP2 / RFU, GMCL1 /// GMCL1P1 / Fold change vs veh, GMCL1 /// GMCL1P1 / RFU, AEBP2 / Fold change vs veh, AEBP2 / RFU, SNHG1 /// SNORD22 /// SNORD25 /// SNORD26 /// SNORD27 /// SNORD28 /// SNORD29 /// SNORD31 / Fold change vs veh, SNHG1 /// SNORD22 /// SNORD25 /// SNORD26 /// SNORD27 /// SNORD28 /// SNORD29 /// SNORD31 / Fold change (Aza/veh), C12orf56 (ProbeSet 11735607_a_at) / Fold change (ACY-1035/veh), C12orf56 (ProbeSet 11735607_a_at) / Fold change (Aza/veh), FGFR1OP (ProbeSet 11751329_s_at) / Fold change (ACY-1035/veh), FGFR1OP (ProbeSet 11751329_s_at) / Fold change (Aza/veh), VPS36 (ProbeSet 11739960_a_at) / Fold change (ACY-1035/veh), VPS36 (ProbeSet 11739960_a_at) / RFU SYPL1 (11715823_x_at) / Fold change /veh SYPL1 (11715823_x_at) / RFU IGFBP7 (11715501_s_at) / Fold change /veh IGFBP7 (11715501_s_at) / RFU REEP3 (11722064_at) / Fold change /veh REEP3 (11722064_at) / RFU IGLL1 (11728026_x_at) / Fold change /veh IGLL1 (11728026_x_at): dose or concentration left out as unconfirmed. As to conditions: ProbeSet 11728271_at; LIST B.

In the case of `Nc1ncn([C@@H]2O[C@H](CO)[C@@H](O)[C@H]2O)c(=O)n1` [azacitidine], the “RFU, ZNF330” value is reported as 711.81 RFU.
